Laboratory results reported in US11691950B2, “Isoquinoline-steroid conjugates and uses thereof” (priority 2018, dated 2023).
pIC50: −log10 of the molar value. Where a name gives a salt, the structure may show the parent alone.

Experiments:
TNFα = TNFα secretion assay (LPS-treated RAW264.7 macrophages, ELISA); assay type: cell-based, murine; details: RAW264.7 cells, 4 hrs
Description: The TNFα assay quantifies secreted TNFα from RAW264.7 immortalized murine macrophages as an indicator of inflammation. The cells were concurrently treated with LPS (as an inducer of inflammation) and a titration of test molecules or control compounds for 4 hrs. After the incubation period, the media was harvested and assayed via an ELISA assay. ODs of experimental samples are fit to those of a standard curve to extrapolate the TNFα concentration. IC50 values were calculated by fitting a curve to experimental values with the controls as the top and bottom limits of the curve. Selected compounds provided herein were subjected to this assay.

TOX = TOX assay; assay type: cell-based; details: HCl salt
Description: Inhibition of various kinases was assayed.

myeloperoxidase activity = experiment: Myeloperoxidase (MPO) activity after intravitreal LPS in mice; assay type: in vivo, C57B16 male mice; details: dosed at 0 and 6 hours, collected 24 hours
Description: Adult C57B16 male mice were injected with 2 ng of lipopolysaccharide (LPS) intravitreally. The mice were then dosed with vehicle, compounds or control treatments (0.07% w/w, 0.02% w/w or 0.007% w/w) at times 0 and 6 hours post-injection. Aqueous humor (AH) and vitreous humor (VH) was collected 24 hours after injection of LPS and assayed for MPO activity by ELISA. Data is a compilation of two separate experiments. Statistical analysis was carried out on GraphPad prism using a multiple comparisons 1-way ANOVA with uncorrected Dunn's test. Results are shown in FIG. 5 (aqueous humor) and FIG. 6 (vitreous humor). In FIG. 5 and FIG. 6, Dex refers to dexamethasone, Compound A refers to (S)-3-amino-2-(4-(hydroxymethyl)phenyl)-N-(isoquinolin-6-yl)propanamide, *refers to p<0.05, and **refers to p<0.005. MPO levels correspond to levels of neutrophil infiltration. In the context of non-infectious inflammatory events, neutrophils cause robust levels of damage to tissues.

Row | SMILES | pIC50 (TOX) | other results
1 | CC(C)(C)OC(=O)NC[C@@H](C(=O)Nc1ccc2cnccc2c1)c1ccc(COC(=O)CCC(=O)OCC(=O)[C@@]2(O)CC[C@H]3[C@@H]4CCC5=CC(=O)C=C[C@]5(C)[C@H]4[C@@H](O)C[C@@]32C)cc1 [Example 14] | – | pIC50 (TNFα): 6.21
2 | C[C@@H]1C[C@H]2[C@@H]3CCC4=CC(=O)C=C[C@]4(C)[C@@]3(F)[C@@H](O)C[C@]2(C)[C@@]1(O)C(=O)COC(=O)CCC(=O)OCc1ccc([C@@H](CN)C(=O)Nc2ccc3cnccc3c2)cc1 [Example 25] | 4.00 | –
3 | C[C@@H]1C[C@H]2[C@@H]3CCC4=CC(=O)C=C[C@]4(C)[C@@]3(F)[C@@H](O)C[C@]2(C)[C@@]1(O)C(=O)COC(=O)C1CC1C(=O)OCc1ccc([C@@H](CN)C(=O)Nc2ccc3cnccc3c2)cc1 (some centres unmarked) [Example 27] | 4.00 | –
4 | CC1(C)O[C@@H]2C[C@H]3[C@@H]4CCC5=CC(=O)C=C[C@]5(C)[C@@]4(F)[C@@H](O)C[C@]3(C)[C@]2(C(=O)COC(=O)CCC(=O)OCc2ccc([C@@H](CN)C(=O)Nc3ccc4cnccc4c3)cc2)O1 [Example 33] | 4.26 | myeloperoxidase activity in aqueous humor (myeloperoxidase activity; FIG. 5): inhibiting effect; myeloperoxidase activity in vitreous humor (myeloperoxidase activity; FIG. 6): inhibiting effect
5 | C[C@@H]1C[C@H]2[C@@H]3CCC4=CC(=O)C=C[C@]4(C)[C@@]3(F)[C@@H](O)C[C@]2(C)[C@@]1(O)C(=O)COC(=O)c1ccc(C(=O)OCc2ccc([C@@H](CN)C(=O)Nc3ccc4cnccc4c3)cc2)cc1 [Example 66, 4-((S)-3-amino-1-(isoquinolin-6-ylamino)-1-oxopropan-2-yl)benzyl (2-((8S,9R,10S,11S,13S,14S,16R,17R)-9-fluoro-11,17-dihydroxy-10,13,16-trimethyl-3-oxo-6,7,8,9,10,11,12,13,14,15,16,17-dodecahydro-3H-cyclopenta[a]phenanthren-17-yl)-2-oxoethyl) terephthalate dihydrochloride] | 4.00 | –
6 | C[C@@H]1C[C@H]2[C@@H]3CCC4=CC(=O)C=C[C@]4(C)[C@@]3(F)[C@@H](O)C[C@]2(C)[C@@]1(O)C(=O)COC(=O)C[C@H](N)C(=O)OCc1ccc([C@@H](CN)C(=O)Nc2ccc3cnccc3c2)cc1 [Example 83, 1-(4-((S)-3-amino-1-(isoquinolin-6-ylamino)-1-oxopropan-2-yl)benzyl) 4-(2-((8S,9R,10S,11S,13S,14S,16R,17R)-9-fluoro-11,17-dihydroxy-10,13,16-trimethyl-3-oxo-6,7,8,9,10,11,12,13,14,15,16,17-dodecahydro-3H-cyclopenta[a]phenanthren-17-yl)-2-oxoethyl) L-aspartate trihydrochloride] | 4.00 | –
